The text below walks through data of patent US9518008B2, “(1S,2S,3S,4R)-3-[(1S)-1-acetylamino-2-ethyl-butyl]-4-uanidino-2-hydroxyl-cyclopentyl-1-carboxylic acid hydrates pharmaceutical uses thereof” (Institute of Pharmacology and Toxicology Academy of …, priority 2007, dated 2016).

Where two headings read alike, the source gives them in different places.

A short description of series [1]: Determination of solubility. As to conditions: Solvent: Water; 25±2° C. The procedure: According to the invention, the solubility of the compound of the invention can be tested by using a standard solubility test method.
While vigorously stirring for 30 seconds every 5 minutes, the dissolution of the powder was observed within 30 minutes.

Series [2] is described as follows: Determination of hygroscopicity (high humidity test). The class given is physicochemical. The procedure:
The hygroscopicity of the compound of the invention can be tested by a standard hygroscopicity test method. For example, the compound is stored in a sealed vessel at room temperature at a relative humidity of 92.5%, 80% or 75%, and the change in moisture content of the compound is tested by sampling at regular intervals.
At the 5th and 10th days, the products were sampled and determined in aspect of important items relating to stability investigation. […] If the weight gain of a product due to moisture absorption was more than 5%, the product was further experimented according to the same method under a relative humidity of 75%±5%. If the weight gain of a product due to moisture absorption was less than 5%, and other items thereof under investigation met the relevant requirements, no more experiment was needed. The humidity-constant condition could be achieved by placing a saturated saline solution at the lower part of a sealed vessel, e.g., a desiccator, and a NaCl saturated solution (15.5-60° C., a relative humidity of 75%±1%) or a KNO3 saturated solution (25° C., a relative humidity of 92.5%) may be selected according to the requirement of different relative humidity.

The nature of series [3]: Stability of RWJ270201 in aqueous solution. Format: physicochemical. Particulars: as shown by study.
Series [4] deals with influenza virus strain A/Bayern/07/95 (H1N1). As to conditions: 10 mg/kg/day; cited from earlier work.
The test system of series [5] is NA of 7 influenza A virus stains. Particulars: 7 influenza A virus strains; cited from earlier work.
Series [6] concerns influenza virus strain B/Hong Kong/5/72. As to conditions: 1 mg/kg/day; cited from earlier work.
Series [7] has as its system NA of 4 influenza B virus strains. Particulars: cited from earlier work.
The conditions of series [8]: rats, 1000 mg/kg/day for 5 days; cited from earlier work.
Series [9] relates to influenza virus strain A/NWS/33 (H1N1). As to conditions: 10 mg/kg/day; cited from earlier work.
In series [10] the test system is influenza virus strain A/HongKong/156/97 (H5N1). As to conditions: cited from earlier work.
Series [11] relates to influenza virus strain FM1 (H1N1). In words: Anti-influenza activity in infected mice (survival). Particulars: 5 times, 14th day after infection. The class given is in vivo, mice (BALB/C). Here is the method:
A virus drip is prepared typically by including 500 pfu (plaque forming unit) of mice-compliance influenza virus strain in 50 μl phosphate buffer (containing 0.42% bovine serum albumin), and then dropped into nasal cavity of mice to infect them (BALB/C, female, aged 5-6 weeks, weighted 20 g). The compound of the invention is suspended in physiological saline to obtain different doses, typically from 2.5 mg/kg to 40 mg/kg, and is administered to the mice at different time before and after the viral infection, typically administered by intraperitoneal injection for 5 times, i.e., 1 hour, and 2, 3, 4, 5 days after the viral infection. The assay is performed by using 8 or 12, typically 10 mice. The result is expressed by the ratio of the number of survival mice the 14th day after the viral infection to the number of the mice in assay.
A solution was prepared by including 500 pfu (plaque forming unit) of mice-compliance influenza virus strain FM1 (H1N1) in 50 μl phosphate buffer (containing 0.42% bovine serum albumin), and then dropped into nasal cavity of mice (BALB/C, female, aged 5-6 weeks, weighted 20 g) to infect them with an infective dose of 23.7LD50. The compound of the invention was suspended in physiological saline, and was administered in doses of 2.5 mg/kg, 5 mg/kg, 10 mg/kg, 20 mg/kg to the mice by intraperitoneal injection for 5 times, i.e., 1 hour, and 2, 3, 4, 5 days after the viral infection, respectively. The assay was performed by 10 mice. The result was expressed by the ratio of the number of survival mice the 14th day after the viral infection to the number of the mice in assay.

The mark [12] stands for this setting: Relative humidity 92.5%, 25° C.

Usually Solubility stands for the dissolved amount per volume that the medium holds. Turning to “(1S,2S,3S,4R)-3-[(1S)-1-acetylamino-2-ethyl-butyl]-4-guanidino-2-hydroxy-cyclopentyl-1-carboxylic acid dihydrate”, in series [1], the Solubility is 50 mg/mL. In addition, in [2] (Relative humidity 75%), the “Hygroscopicity at the 5th day” value is 2.21% and the “Hygroscopicity at the 10th day” value is given as 2.54%. For the same molecule, in series [2] (setting [12]), the “Hygroscopicity at the 5th day” value is given as 2.54% and the “Hygroscopicity at the 10th day” value was 2.98%.
As usually defined, the IC50 is the midpoint of a concentration-inhibition curve. Turning to `CCC(CC)[C@H](NC(C)=O)[C@H]1[C@H](O)[C@@H](C(=O)O)C[C@H]1NC(=N)N` [Anhydrous, (1S,2S,3S,4R)-3-[(1S)-1-acetylamino-2-ethyl-butyl]-4-guanidino-2-hydroxy-cyclopentyl-1-carboxylic acid, reference compound], the “stability in aqueous solution” value in series [3] is on record as “unstable in aqueous solution”. In addition, the effect on infection entry in series [4] was “effectively antagonize the infection”. The IC50 in [5] is 100 to 1400 pM; in series [7] it was 600 to 11000 pM. Moreover, in series [6], the arterial oxygen saturation entry was “prevent the reduction in arterial oxygen saturation”. Also, the results for the death rate entry in series [6], in series [9] and in series [10] (infected mice) were “reduce the death rate”, “reduce the death rate” and “markedly reduce the death rate”, respectively. For the same molecule, the “efficacy compared with oseltamivir” value in [6] is on record as “more effective than oseltamivir”. Moreover, the lung consolidation result in series [6] is recorded as “inhibit lung consolidation”. Also, the toxic side effect result in [8] is listed as “no toxic side effect was found”. Also, the Survival rate entry in series [10] (group of 10 mg/kg/day) is “up to 100%”; in [10] (mouse, in vivo, 0.1 mg/kg/day), “up to 70%”; in series [11] (2.5 mg/kg intraperitoneal), 50%; in series [11] (5.0 mg/kg intraperitoneal) it was 70%; in [11] (10 mg/kg intraperitoneal) it was 70%; in [11] (20 mg/kg intraperitoneal) it was 90%. The “diffusion of virus to brain tissue” value in [10] (infected mice) is reported as “prevent the diffusion of virus to brain tissue”. The “virus titer in lung tissue” value in series [10] (infected mice) is “markedly reduce virus titer in lung tissue”. The Survival number was 5/10 in series [11] (2.5 mg/kg intraperitoneal), 7/10 in series [11] (5.0 mg/kg intraperitoneal), 7/10 in series [11] (10 mg/kg intraperitoneal) and 9/10 in series [11] (20 mg/kg intraperitoneal). Also, the “Hygroscopicity at the 5th day” value stood at 7.23% in [2] (Relative humidity 75%) and 8.38% in series [2] (setting [12]). The “Hygroscopicity at the 10th day” value worked out at 12.88% in [2] (Relative humidity 75%) and 13.53% in series [2] (setting [12]). In addition, in series [2] (as shown by study), the “hygroscopicity” value was “easily hygroscopic”. Moreover, the weight gain result in [2] (ten-day observation test, sealed vessel, room temperature, high relative humidity) is recorded as “about 13.53%”.
